# Source: PubChem BioAssay AID1963986 (Molecular Pharmacology Branch, DTP, NCI, 2024)
# System: 171881-019-R-J1-PDC tumor spheroid viability
# Assay: Anticancer human tumor 171881-019-R-J1-PDC patient-derived invasive breast carcinoma cell line growth inhibition [PI3K]
# Settings: spheroids with HUVEC and MSC; for IC50: curve of first compound; for viability, T/C: stronger effect = lower value
# Text: Combinatorial screen of targeted agents with the PI3K inhibitors inavolisib, alpelisib, duvelisib, and copanlisib in multi-cell type tumor spheroids
# A high-throughput screen of multi-cell type tumor spheroids was designed to identify active combinations of targeted small molecules and PI3K pathway inhibitors. Complex spheroids include a stromal component modeled by human endothelial cells (HUVEC) and fibroblasts modeled by human mesenchymal stem cells (MSCs). The concentration ranges selected for each drug and investigational agent were based upon clinically achievable concentrations if the clinical Cmax of the agent was known.
# Compounds. The drugs and investigational agents: inavolisib (NSC800729), alpelisib (NSC765974), duvelisib (NSC772469), copanlisib (NSC816437), ipatasertib (NSC767898), afuresertib (NSC778305), talazoparib (NSC767125), sapanisertib (NSC764658), selumetinib (NSC741078), tovorafenib (DAY101, NSC766906), vemurafenib (NSC761431), ravoxertinib (NSC781343), sotorasib (NSC818433), MRTX1133 (NSC 836407), abemaciclib (NSC 768073), palbociclib (NSC758247), venetoclax (NSC 766270), SY5609 (NSC837396), enzalutamide (NSC755605), and darolutamide (NSC825331), were obtained from the National Cancer Institute (NCI) Developmental Therapeutics Program Chemical Repository. The FDA-approved anticancer drug set is available from the NCI Developmental Therapeutics Program. […] The stock solutions were prepared in dimethyl sulfoxide (DMSO, Sigma-Aldrich, St. Louis, MO, cat. D2650) at 800-fold the tested concentration and stored at -70 degrees C prior to their use. All drugs and investigational agents were tested over a range starting from a high concentration at or near the clinical Cmax and decreasing in half-log increments. If the clinical Cmax for an agent had not been determined, the highest concentration tested was 10 microM.
# Cell Culture. All cells were maintained in an incubator at 37 degrees C and 5% CO2 with 95% humidity. The PDC lines were cultured according to standard operating procedures established by the NCI PDMR (https://pdmr.cancer.gov/sops/default.htm). All PDCs were thawed and cultured in Matrigel-coated flasks prepared with a working solution of 1X Ham's F-12 nutrient mix, without supplementation (Invitrogen, Waltham, MA, cat. 11765054), 100 U/mL penicillin-streptomycin (Invitrogen, cat. 15140122), and 2.5% Matrigel (Corning Inc., Corning, NY, cat. 354248) for the first three passages. The 354836-022-R-J1-PDC, 475296-252-R-J1-PDC, and 997726-040-R-J2-PDC lines were cultured in 6A media, which includes advanced DMEM/F-12 (Thermo Fisher Scientific, cat. 12634028), 10 mM HEPES (Thermo Fisher Scientific, cat. 15630080), 1X GlutaMAX supplement (Thermo Fisher Scientific, cat. 35050061), 0.1 mg/mL primocin (InvivoGen, San Diego, CA, cat. ant-pm-2), 10% defined fetal bovine serum, heat inactivated (HyClone Laboratories Inc., Logan, UT, cat. SH30070.03HI), 50% L-WRN conditioned media (ATCC, cat. CRL-3276), 1.25 mM N-Acetyl-L-cysteine (Sigma-Aldrich, cat. A9165), 10 mM nicotinamide (Sigma-Aldrich, cat. N0636), 1X B-27 supplement (Thermo Fisher Scientific, cat. 17504044), 1X N-2 supplement (Thermo Fisher Scientific, cat. 17502048), and 10 microM Y-27632 dihydrochloride (Tocris Bioscience, Bristol, United Kingdom, cat. 1254). The 624824-186-R-J2-PDC line was cultured in 6C/Colon 1B media, which includes all 6A media components plus 50 ng/mL human EGF recombinant protein (Thermo Fisher Scientific, cat. PHG0311). […]
# 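Further: spheroids exposed to compound for 7 days before viability read.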
# 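Wherever viability, T/C is given: 100% = DMSO vehicle-treated spheroids.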
structure (smiles),measurement,setting,value
CNC(=O)c1ccc(N2C(=S)N(c3ccc(C#N)c(C(F)(F)F)c3)C(=O)C2(C)C)cc1F + CC(Nc1ccc2c(c1)OCCn1cc(N3C(=O)OCC3C(F)F)nc1-2)C(N)=O,IC50,second compound 0.00316 µM,> 10 µM
same,IC50,second compound 0.01 µM,> 10 µM
same,IC50,second compound 0.0316 µM,3.83 µM
same,IC50,second compound 0.1 µM,< 0.0316 µM
same,IC50,second compound 0.316 µM,< 0.0316 µM
same,IC50,second compound 1 µM,< 0.0316 µM
same,"viability, T/C","second compound 0.00316 µM, first compound 0.0316 µM",82.6%
same,"viability, T/C","second compound 0.00316 µM, first compound 0.1 µM",88%
same,"viability, T/C","second compound 0.00316 µM, first compound 0.316 µM",82.4%
same,"viability, T/C","second compound 0.00316 µM, first compound 1 µM",93.6%
same,"viability, T/C","second compound 0.00316 µM, first compound 3.16 µM",81%
same,"viability, T/C","second compound 0.00316 µM, first compound 10 µM",69.5%
same,"viability, T/C","second compound 0.01 µM, first compound 0.0316 µM",75.1%
same,"viability, T/C","second compound 0.01 µM, first compound 0.1 µM",73.8%
same,"viability, T/C","second compound 0.01 µM, first compound 0.316 µM",77%
same,"viability, T/C","second compound 0.01 µM, first compound 1 µM",74.5%
same,"viability, T/C","second compound 0.01 µM, first compound 3.16 µM",78.3%
same,"viability, T/C","second compound 0.01 µM, first compound 10 µM",62.3%
same,"viability, T/C","second compound 0.0316 µM, first compound 0.0316 µM",55.2%
same,"viability, T/C","second compound 0.0316 µM, first compound 0.1 µM",56.7%
same,"viability, T/C","second compound 0.0316 µM, first compound 0.316 µM",57%
same,"viability, T/C","second compound 0.0316 µM, first compound 1 µM",56.6%
same,"viability, T/C","second compound 0.0316 µM, first compound 3.16 µM",53.1%
same,"viability, T/C","second compound 0.0316 µM, first compound 10 µM",33.8%
same,"viability, T/C","second compound 0.1 µM, first compound 0.0316 µM",39.1%
same,"viability, T/C","second compound 0.1 µM, first compound 0.1 µM",41.5%
same,"viability, T/C","second compound 0.1 µM, first compound 0.316 µM",38.1%
same,"viability, T/C","second compound 0.1 µM, first compound 1 µM",39.9%
same,"viability, T/C","second compound 0.1 µM, first compound 3.16 µM",38%
same,"viability, T/C","second compound 0.1 µM, first compound 10 µM",30.5%
same,"viability, T/C","second compound 0.316 µM, first compound 0.0316 µM",28.2%
same,"viability, T/C","second compound 0.316 µM, first compound 0.1 µM",27.9%
same,"viability, T/C","second compound 0.316 µM, first compound 0.316 µM",25.2%
same,"viability, T/C","second compound 0.316 µM, first compound 1 µM",28.5%
same,"viability, T/C","second compound 0.316 µM, first compound 3.16 µM",24.8%
same,"viability, T/C","second compound 0.316 µM, first compound 10 µM",22.1%
same,"viability, T/C","second compound 1 µM, first compound 0.0316 µM",20.8%
same,"viability, T/C","second compound 1 µM, first compound 0.1 µM",21.3%
same,"viability, T/C","second compound 1 µM, first compound 0.316 µM",24.9%
same,"viability, T/C","second compound 1 µM, first compound 1 µM",18.5%
same,"viability, T/C","second compound 1 µM, first compound 3.16 µM",20.1%
same,"viability, T/C","second compound 1 µM, first compound 10 µM",18.7%
